Usually IC50 stands for the point on the concentration scale where inhibition reaches its midpoint. Read a low IC50 as inhibition by little substance. For orientation: GI50 means the concentration that inhibits growth by half. Read a low GI50 as more potent growth inhibition.

The results in this text go back to ChEMBL document CHEMBL4725227, “Dual-Target Inhibitors Based on HDACs: Novel Antitumor Agents for Cancer Therapy” (J Med Chem, 2020).

The target in one experiment is Histone deacetylase. Description: Inhibition of HDAC (unknown origin). In kind it is protein assay, Homo sapiens.
For a further experiment, the system named is THP-1. The experiment can be described thus: Growth inhibition of human THP-1 cells. In kind it is functional.

Consider `Cc1noc(C)c1-c1ccc2c(c1)c(Cc1ccccc1)cn2CCCCCCC(=O)NO`, for which the IC50 against Histone deacetylase was 0.291 µM. In the experiment on THP-1, this molecule returned a 50% growth inhibitory concentration (GI50) of 15.5 µM.

Molecule `COc1cc(OC)c2c(=O)[nH]c(-c3ccc(OCCCCCCC(=O)NO)cc3)nc2c1` registered an IC50 on Histone deacetylase of 0.291 µM. The same molecule registered a GI50 in the experiment with THP-1 of 15.5 µM.

On to `COc1cc(C(=O)NCCCCCC(=O)NO)ccc1Nc1nccc(-c2cn(C)c3ccccc23)n1`, for which the IC50 against Histone deacetylase is less than 1 µM.

For `COc1cc(OC)c2c(=O)[nH]c(-c3ccc(OC/C=C/C(=O)NO)cc3)nc2c1`, the half-maximal inhibitory concentration (IC50) against Histone deacetylase came out at 0.291 µM. This molecule also had a GI50 in the experiment with THP-1 of 15.5 µM.

On to `Cc1noc(C)c1-c1ccc2c(c1)c(CCc1ccc(F)cc1)cn2CCCCCC(=O)NO`, for which, at Histone deacetylase, the IC50 stood at 0.291 µM. In addition, in the experiment on THP-1, the GI50 is 15.5 µM.

`Cc1noc(C)c1-c1ccc2c(c1)c(CCc1ccc(F)cc1)cn2CCCCCCC(=O)NO` gave an IC50 on Histone deacetylase of 0.291 µM. For the same molecule, in the experiment on THP-1, the GI50 came to 15.5 µM.

For the molecule `O=C(CCCCCC(=O)Nc1ccc(O)c(C(=O)Nc2ccc(F)c(Cl)c2)c1)NO`, the half-maximal inhibitory concentration (IC50) against Histone deacetylase was less than 1 µM.

Turning to `COc1cc(OC)c2c(=O)[nH]c(-c3cc(C)c(OCCCCCC(=O)NO)c(C)c3)nc2c1`, at Histone deacetylase, the IC50 came to 0.291 µM. For the same molecule, the concentration for 50% growth inhibition (GI50) with THP-1 amounted to 15.5 µM.

At Histone deacetylase, `O=C(CCCCCC(=O)Nc1ccc(O)c(C(=O)Nc2ccc(Cl)c(Cl)c2)c1)NO` gave an IC50 of less than 1 µM.

On Histone deacetylase, `Cc1sc2c(c1C)C(c1ccc(Cl)cc1)=N[C@@H](CC(=O)OC(C)(C)C)c1nnc(C)n1-2` had an IC50 of 0.291 µM. In the experiment on THP-1, the GI50 is 15.5 µM.

`Cc1noc(C)c1-c1ccc2c(c1)c(Cc1ccccc1)cn2CCCCCC(=O)NO`: the IC50 against Histone deacetylase came to 0.291 µM. In the experiment on THP-1, this molecule had a GI50 of 15.5 µM.

At Histone deacetylase, `Cn1cc(-c2ccnc(Nc3ccc(C(=O)Nc4ccccc4N)cc3)n2)c2ccccc21` yielded an IC50 of less than 1 µM.

As to `C#Cc1cccc(NC(=O)c2cc(NC(=O)CCCCCC(=O)NO)ccc2O)c1`, the IC50 at Histone deacetylase was less than 1 µM.

On Histone deacetylase, `C=CC(=O)Nc1cc(Nc2nccc(-c3cn(C)c4ccccc34)n2)c(OC)cc1N(C)CCN(C)C` [OSIMERTINIB] had an IC50 of less than 1 µM.

In turn, `O=C(CCCCCC(=O)Nc1ccc(O)c(C(=O)Nc2ccc(Cl)c(C(F)(F)F)c2)c1)NO` showed an IC50 against Histone deacetylase of less than 1 µM.

On Histone deacetylase, `Cc1ccccc1Cc1cn(CCCCCC(=O)NO)c2ccc(-c3c(C)noc3C)cc12` gave an IC50 of 0.291 µM. In the experiment with THP-1, this molecule gave a GI50 of 15.5 µM.

`O=C(CCCCCC(=O)Nc1ccc(O)c(C(=O)Nc2cccc(C(F)(F)F)c2)c1)NO` gave an IC50 on Histone deacetylase of less than 1 µM.

`COc1cc(OC)c2c(=O)[nH]c(-c3ccc(Oc4ccc(C(=O)NO)cn4)cc3)nc2c1`: on Histone deacetylase, the IC50 amounted to 0.291 µM. Growth in the experiment on THP-1 was halved (GI50) at 15.5 µM.

In turn, `COc1cc(OC)c2c(=O)[nH]c(-c3cc(C)c(O)c(C)c3)nc2c1` showed an IC50 at Histone deacetylase of 291 µM. The GI50 in the experiment on THP-1 is 15.5 µM.

As for `COc1cc(C(=O)NCCCCCCC(=O)NO)ccc1Nc1nccc(-c2cn(C)c3ccccc23)n1`, the IC50 against Histone deacetylase is less than 1 µM.

On to `Cc1cccc(Cc2cn(CCCCCCC(=O)NO)c3ccc(-c4c(C)noc4C)cc23)c1`, for which, at Histone deacetylase, the IC50 is 0.291 µM. In the experiment with THP-1, this molecule gave a GI50 of 15.5 µM.

`Cc1noc(C)c1-c1ccc2c(c1)c(CCc1ccccc1)cn2CCCCCC(=O)NO` gave an IC50 on Histone deacetylase of 0.291 µM. Moreover, halving of growth in the experiment with THP-1 (GI50) required 15.5 µM.

Regarding `O=C(CCCCCC(=O)Nc1ccc(O)c(C(=O)Nc2ccc(OCc3cccc(F)c3)c(Cl)c2)c1)NO`, the IC50 on Histone deacetylase is less than 1 µM.

In turn, `COc1cc(C(=O)NCCC(=O)NO)ccc1Nc1nccc(-c2cn(C)c3ccccc23)n1` registered an IC50 on Histone deacetylase of less than 1 µM.

On Histone deacetylase, `O=C(CCCCCC(=O)Nc1ccc(O)c(C(=O)Nc2ccccc2)c1)NO` gave an IC50 of less than 1 µM.

In turn, `Cc1ccc(Cc2cn(CCCCCC(=O)NO)c3ccc(-c4c(C)noc4C)cc23)cc1` registered an IC50 against Histone deacetylase of 0.291 µM. In the experiment on THP-1, this molecule showed a GI50 of 15.5 µM.

As for `C#Cc1cccc(NC(=O)c2cc(NC(=O)CCCCCC(=O)NO)c(OC)cc2O)c1`, the IC50 against Histone deacetylase was less than 1 µM.

At Histone deacetylase, `COc1cc(O)c(C(=O)Nc2ccc(F)c(Cl)c2)cc1NC(=O)CCCCCC(=O)NO` registered an IC50 of less than 1 µM.

With `COc1cc(C(=O)NCCCC(=O)NO)ccc1Nc1nccc(-c2cn(C)c3ccccc23)n1`, the IC50 against Histone deacetylase is less than 1 µM.

In turn, `Cc1ccccc1Cc1cn(CCCCCCC(=O)NO)c2ccc(-c3c(C)noc3C)cc12` yielded an IC50 against Histone deacetylase of 0.291 µM. Further, the GI50 in the experiment on THP-1 worked out at 15.5 µM.

For `Cc1noc(C)c1-c1ccc2c(c1)c(Cc1cccc(C(F)(F)F)c1)cn2CCCCCC(=O)NO`, the IC50 against Histone deacetylase amounted to 0.291 µM. This molecule came in with a GI50 in the experiment on THP-1 of 15.5 µM.

As for `Cn1cc(-c2ccnc(Nc3ccc(C(=O)NO)cc3)n2)c2ccccc21`, the IC50 against Histone deacetylase is less than 1 µM.

On Histone deacetylase, `C#Cc1cccc(NC(=O)c2cc(OCCCCCCC(=O)NO)ccc2O)c1` registered a 50% inhibitory concentration (IC50) of less than 1 µM.

On Histone deacetylase, `Cc1noc(C)c1-c1ccc2c(c1)c(Cc1ccc(F)cc1)cn2CCCCCC(=O)NO` registered an IC50 of 0.291 µM. The GI50 with THP-1 amounted to 15.5 µM.

With `C#Cc1cccc(NC(=O)c2cc(NC(=O)CCCCCCC(=O)NO)ccc2O)c1`, the IC50 against Histone deacetylase is less than 1 µM.

For the molecule `Cn1cc(-c2ccnc(Nc3ccc(C(=O)NCCCCCC(=O)NO)cc3)n2)c2ccccc21`, the IC50 against Histone deacetylase is less than 1 µM.

Molecule `COc1cc(OC)c2c(=O)[nH]c(-c3ccc(OCCCCC(=O)NO)cc3)nc2c1` displayed an IC50 against Histone deacetylase of 0.291 µM. The molecule also showed a GI50 in the experiment with THP-1 of 15.5 µM.

`O=C(CCCCCC(=O)Nc1ccc(O)c(C(=O)Nc2ccc(F)c(F)c2)c1)NO` yielded an IC50 against Histone deacetylase of less than 1 µM.

`Cc1noc(C)c1-c1ccc2c(c1)c(CCc1ccccc1)cn2CCCCCCC(=O)NO` came in with an IC50 against Histone deacetylase of 0.291 µM. In the experiment with THP-1, this molecule returned a GI50 of 15.5 µM.

Molecule `O=C(CCCCCC(=O)Nc1ccc(O)c(C(=O)Nc2cccc(F)c2)c1)NO` registered an IC50 against Histone deacetylase of less than 1 µM.

The molecule `COc1cc(OC)c2c(=O)[nH]c(-c3ccc(OCc4ccc(/C=C/C(=O)NO)cc4)cc3)nc2c1` displayed an IC50 on Histone deacetylase of 0.291 µM. Besides, in the experiment on THP-1, the GI50 was determined as 15.5 µM.

Molecule `COc1cc(OC)c2c(=O)[nH]c(-c3ccc(OCc4cc(C)c(/C=C/C(=O)NO)c(C)c4)cc3)nc2c1` displayed an IC50 against Histone deacetylase of 0.291 µM. Moreover, the GI50 in the experiment on THP-1 is 15.5 µM.

On to `COc1cc(C(=O)NCCCCC(=O)NO)ccc1Nc1nccc(-c2cn(C)c3ccccc23)n1`, for which, at Histone deacetylase, the IC50 was less than 1 µM.

Take `Cn1cc(-c2ccnc(Nc3ccc(C(=O)NCCC(=O)NO)cc3)n2)c2ccccc21`: the IC50 on Histone deacetylase was less than 1 µM.

For the molecule `Cc1cccc(Cc2cn(CCCCCC(=O)NO)c3ccc(-c4c(C)noc4C)cc23)c1`, at Histone deacetylase, the IC50 is 0.291 µM. For the same molecule, in the experiment with THP-1, the GI50 is 15.5 µM.

As to `COC(c1c(F)cccc1Cl)c1c[nH]c2ncc(-c3c(C)noc3C)cc12` (configuration not stated), at Histone deacetylase, the IC50 came out at 0.291 µM. For the same molecule, growth in the experiment on THP-1 was halved (GI50) at 15.5 µM.

In turn, `Cn1cc(-c2ccnc(Nc3ccc(C(=O)NCCCC(=O)NO)cc3)n2)c2ccccc21` had an IC50 against Histone deacetylase of less than 1 µM.

At Histone deacetylase, `COc1cc(OC)c2c(=O)[nH]c(-c3ccc(OCCCCCC(=O)NO)cc3)nc2c1` displayed an IC50 of 0.291 µM. For the same molecule, the GI50 in the experiment on THP-1 was 15.5 µM.

In turn, `Cc1ccc(Cc2cn(CCCCCCC(=O)NO)c3ccc(-c4c(C)noc4C)cc23)cc1` yielded an IC50 against Histone deacetylase of 0.291 µM. Further, the GI50 with THP-1 came to 15.5 µM.

For `Cn1cc(-c2ccnc(Nc3ccc(C(=O)NCCCCC(=O)NO)cc3)n2)c2ccccc21`, the IC50 at Histone deacetylase is less than 1 µM.

With `COc1cc(OC)c2c(=O)[nH]c(-c3ccc(OCCCCCCCC(=O)NO)cc3)nc2c1`, the IC50 against Histone deacetylase amounted to 0.291 µM. Besides, in the experiment on THP-1, the GI50 was determined as 15.5 µM.
